Test results as given in patent publication US8853394B2, “Pharmacokinetically improved compounds” (Surface Logix, Inc., priority 2006, dated 2014).
≈ marks a conversion by molar mass, not a printed value. Read-outs that look alike come from different tables or passages of the source.

Columns and labels:
[1] = tested on: PDE-1; experiment: PDE-1 inhibition; type: biochemical
[2] = Protein Binding; type: in vitro ADME; conditions: human, human serum components
Experimental: In general, protein binding is assessed by measuring the capacity of molecules of the invention to bind to one or more human serum components or mimics thereof. In one embodiment, suitable functional residues may be identified by screening of surfaces comprising such residues for their ability to resist adsorption of serum components, including, but not limited to serum proteins, and preferably human serum proteins. Candidate residues can be screened directly by attaching them to a solid support and testing the support for protein resistance. Alternatively, candidate residues are incorporated into, or linked to molecules of pharmaceutical interest. Such compounds may be synthesized on a solid support, or bound to a solid support after synthesis. In a non-limiting example of a direct binding assay, immobilized candidate functional residues or molecules incorporating such residues are tested for their ability to bind serum components. The serum components can be labeled with a signaling moiety for detection, or a labeled secondary reagent that binds to such serum components can be used.
A direct binding analysis can also be preformed in liquid phase. For example, test compounds can be mixed with one or more serum components in liquid phase, and the unbound molecules determined.

[3] = tested on: PDE-4 human; experiment: PDE-4 human inhibition; type: biochemical
[4] = target: PDE5 (Homo sapiens, UniProt O76074); experiment: PDE-5 human inhibition; type: biochemical
[5] = Non-Spec Binding; type: in vitro ADME
[6] = tested on: PDE-3; experiment: PDE-3 inhibition; type: biochemical
[7] = target: T1, PDE-6 bovine (Bos taurus, UniProt P11541+P23439); experiment: PDE-6 bovine inhibition; type: biochemical
T1 sequence (P11541 2-856 limits assumed): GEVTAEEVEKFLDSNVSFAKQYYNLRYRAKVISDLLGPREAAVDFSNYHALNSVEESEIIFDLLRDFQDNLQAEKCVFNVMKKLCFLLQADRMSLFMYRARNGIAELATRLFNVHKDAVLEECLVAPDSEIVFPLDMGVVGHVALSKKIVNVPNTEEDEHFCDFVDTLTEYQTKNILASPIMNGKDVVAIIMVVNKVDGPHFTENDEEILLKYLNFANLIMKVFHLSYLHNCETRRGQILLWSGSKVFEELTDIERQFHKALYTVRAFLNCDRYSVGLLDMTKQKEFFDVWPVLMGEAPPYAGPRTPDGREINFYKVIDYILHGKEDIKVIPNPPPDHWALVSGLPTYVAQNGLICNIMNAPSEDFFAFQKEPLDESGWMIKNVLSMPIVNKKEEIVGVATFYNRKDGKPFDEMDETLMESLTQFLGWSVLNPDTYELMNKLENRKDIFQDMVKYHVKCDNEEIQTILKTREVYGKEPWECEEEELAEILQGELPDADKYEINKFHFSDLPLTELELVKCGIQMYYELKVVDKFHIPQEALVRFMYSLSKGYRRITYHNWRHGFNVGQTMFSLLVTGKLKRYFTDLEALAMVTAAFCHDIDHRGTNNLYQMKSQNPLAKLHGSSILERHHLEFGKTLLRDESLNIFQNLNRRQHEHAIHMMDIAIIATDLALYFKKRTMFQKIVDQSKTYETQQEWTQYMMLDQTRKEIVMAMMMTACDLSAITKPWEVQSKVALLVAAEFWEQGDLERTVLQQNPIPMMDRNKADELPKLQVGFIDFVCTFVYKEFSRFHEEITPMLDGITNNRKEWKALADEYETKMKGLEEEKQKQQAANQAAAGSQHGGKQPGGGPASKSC
T1 sequence (P23439 2-850 limits assumed): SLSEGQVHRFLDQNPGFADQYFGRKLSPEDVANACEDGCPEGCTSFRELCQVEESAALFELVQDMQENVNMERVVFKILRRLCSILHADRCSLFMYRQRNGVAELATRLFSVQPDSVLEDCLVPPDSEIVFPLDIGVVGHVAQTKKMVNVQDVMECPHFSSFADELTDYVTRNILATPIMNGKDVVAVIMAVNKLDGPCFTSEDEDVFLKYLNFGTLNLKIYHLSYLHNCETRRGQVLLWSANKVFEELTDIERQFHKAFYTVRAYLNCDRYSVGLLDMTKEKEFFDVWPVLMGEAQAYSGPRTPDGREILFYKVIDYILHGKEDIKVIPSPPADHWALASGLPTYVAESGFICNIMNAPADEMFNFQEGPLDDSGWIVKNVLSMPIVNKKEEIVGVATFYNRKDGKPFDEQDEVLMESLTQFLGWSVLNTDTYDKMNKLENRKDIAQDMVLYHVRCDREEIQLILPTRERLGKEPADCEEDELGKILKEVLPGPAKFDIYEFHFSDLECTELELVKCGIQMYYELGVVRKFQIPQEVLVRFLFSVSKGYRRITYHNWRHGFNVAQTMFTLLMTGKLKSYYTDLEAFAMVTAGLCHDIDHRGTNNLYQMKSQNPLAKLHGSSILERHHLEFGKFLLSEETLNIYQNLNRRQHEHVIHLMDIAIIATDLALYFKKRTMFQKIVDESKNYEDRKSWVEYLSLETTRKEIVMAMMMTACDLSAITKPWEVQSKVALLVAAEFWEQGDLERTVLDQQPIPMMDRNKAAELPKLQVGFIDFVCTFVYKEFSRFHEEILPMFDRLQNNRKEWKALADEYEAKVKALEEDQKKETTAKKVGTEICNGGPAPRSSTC

[8] = Caco-2 permeability; type: in vitro ADME; conditions: human; for Papp A→B: AtoB; for Papp B→A: BtoA
From the text: Several model systems are available, employing monolayers of various cell types, for evaluation of active transport of pharmaceutically active substances. For example, monolayers of Caco-2 intestinal epithelial cells can be used to evaluate active transport of substances between the intestine and the bloodstream. When plated on a surface which allows the flow of material from apical to basolateral and vice versa, such cells form a biological membrane which can be used to simulate physiological absorption and bioavailability. In another example, mouse brain capillary endothelial cell (MBEC) lines have been established to evaluate active transport in and out of the central nervous system. Another example of such cells is HT29 human colon carcinoma cells. Further, monolayers expressing particular transporter proteins can be established using transfected cells. For example, Sasaki et al (2002) J. Biol. Chem. 8:6497 used a double-transfected Madin-Darby canine kidney cell monolayer to study transport of organic anions.

[9] = PAMPA permeability; type: in vitro ADME
[10] = Solubility; type: physicochemical
[11] = Chronic Cytoxicity (mouse 3T3); type: cell-based; conditions: 3T3 cells
[12] = pH 2.7, aqueous buffer, read-out: Solubility (ug/mL) pH 2.7
[13] = pH 7.4, aqueous buffer, read-out: Solubility (ug/mL) pH 7.4

Row | Structure (SMILES) | IC50 [1] | fraction unbound [2] | IC50 [3] | IC50 [4] | Non-Spec Binding (%) [5] | IC50 [6] | IC50 [7] | Papp A→B [8] | Papp B→A [8] | Papp ([9]; Hex, read-out: PAMPA Hex) | Papp ([9]; Lec, read-out: PAMPA Lec) | solubility [10, 12] | solubility [10, 13] | GI50 [11] | LC50 (50% lethal concentration) [11]
1 | CCCc1nc(C)c2c(=O)[nH]c(-c3cc(S(=O)(=O)N4CCN(CC(=O)N5CCOCC5)CC4)ccc3OCC)nn12 [Compound 22] | 18.5 nM | 0.116 | 2950 nM | 0.05 nM | 0.8% | 511 nM | 0.92 nM | – | – | – | – | – | – | – | –
2 | CCCc1nc(C)c2c(=O)[nH]c(-c3cc(S(=O)(=O)N(C)CC(=O)O)ccc3OCC)nn12 [Compound 12] | 24 nM | 0.025 | 5000 nM | 0.1 nM | 0.8% | 1300 nM | 0.48 nM | 2.2 ×10⁻⁶ cm/s | 5.5 ×10⁻⁶ cm/s | – | – | – | – | – | –
3 | CCCc1nc(C)c2c(=O)[nH]c(-c3cc(S(=O)(=O)N(CCOCC)CCOCC)ccc3OCC)nn12 [Compound 10] | 12 nM | 0.012 | – | 0.34 nM | 89.9% | 546 nM | 2.6 nM | – | – | 49 ×10⁻⁶ cm/s | – | – | – | – | –
4 | CCCc1nc(C)c2c(=O)[nH]c(-c3cc(S(=O)(=O)N(C)CC(=O)N(C)OC)ccc3OCC)nn12 [Compound 14] | 12 nM | 0.024 | 1550 nM | 0.104 nM | 9.9% | 648 nM | 2.9 nM | 20.6 ×10⁻⁶ cm/s | 48.8 ×10⁻⁶ cm/s | – | – | – | – | – | –
5 | CCCc1nc(C)c2c(=O)[nH]c(-c3cc(S(=O)(=O)N(C)C[C@H](COC)OC)ccc3OCC)nn12 [Compound 7] | 14.7 nM | 0.018 | – | 0.356 nM | 25.5% | 784 nM | 2.9 nM | 48.6 ×10⁻⁶ cm/s | 57.4 ×10⁻⁶ cm/s | 76.1 ×10⁻⁶ cm/s | – | – | – | – | –
6 | CCCc1nc(C)c2c(=O)[nH]c(-c3cc(S(=O)(=O)N(C)C)ccc3OCC)nn12 [Compound 8] | 31 nM | 0.024 | – | 1 nM | 44.2% | 1200 nM | 5 nM | 45.4 ×10⁻⁶ cm/s | 47.4 ×10⁻⁶ cm/s | 68.9 ×10⁻⁶ cm/s | – | – | – | – | –
7 | CCCNS(=O)(=O)c1ccc(OCC)c(-c2nn3c(CCC)nc(C)c3c(=O)[nH]2)c1 [Compound 23] | 15 nM | – | 2300 nM | 0.19 nM | – | 3700 nM | 0.62 nM | – | – | – | – | – | – | – | –
8 | CCCc1nc(C)c2c(=O)[nH]c(-c3cc(S(=O)(=O)N(C)CCNC)ccc3OCC)nn12 [Compound 2] | 82 nM | – | – | 0.646 nM | – | 1930 nM | 16.3 nM | 1.48 ×10⁻⁶ cm/s | 9.88 ×10⁻⁶ cm/s | 1.17 ×10⁻⁶ cm/s | 1.47 ×10⁻⁶ cm/s | > 50 µg/mL | > 50 µg/mL | > 75000 nM | > 75000 nM
9 | CCCc1nc(C)c2c(=O)[nH]c(-c3cc(S(=O)(=O)N(C)CCN4CCCC4=O)ccc3OCC)nn12 [Compound 20] | 11.5 nM | 0.037 | 944 nM | 0.135 nM | 7.4% | 1170 nM | 0.63 nM | – | – | – | – | 93.3 µg/mL (≈ 181 µM) | 90.9 µg/mL (≈ 176 µM) | – | –
10 | CCCc1nc(C)c2c(=O)[nH]c(-c3cc(S(=O)(=O)N4CCC[C@H]4CN4CCCC4)ccc3OCC)nn12.Cl [Compound 11] | 48 nM | – | – | 1 nM | – | 2100 nM | 23 nM | 6.87 ×10⁻⁶ cm/s | 30.5 ×10⁻⁶ cm/s | 3.86 ×10⁻⁶ cm/s | – | > 50 µg/mL | > 50 µg/mL | 25000 nM | > 100000 nM
11 | CCCc1nc(C)c2c(=O)[nH]c(-c3cc(S(=O)(=O)NCCO)ccc3OCC)nn12 [Compound 4] | 18.7 nM | – | – | 1.08 nM | – | 2030 nM | 5.63 nM | – | – | ~0.0062 ×10⁻⁶ cm/s | 0.0019 ×10⁻⁶ cm/s | – | – | ~50000 nM | > 100000 nM
12 | CCCc1nc(C)c2c(=O)[nH]c(-c3cc(S(=O)(=O)N(CCO)CCO)ccc3OCC)nn12 [Compound 6] | 26 nM | – | – | 0.52 nM | – | 1500 nM | 17 nM | 4.3 ×10⁻⁶ cm/s | 28.1 ×10⁻⁶ cm/s | ~0.08 ×10⁻⁶ cm/s | – | – | – | – | –
